The species named for test [1] is Rattus norvegicus. Nature of the test: Compound was evaluated for the percentage of acute inhibition of cholesterol synthesis (AICS) in male rats through peroral rout. In kind it is functional. On the set-up: concentration or dose not given beside the values.
The species named for test [2] is Rattus norvegicus. Nature of the test: (§1) Compound was tested for its relative Cholesterol Synthesis Inhibition as compared to compactin in rats. In kind it is functional.
Test [3] is filed under the species Rattus norvegicus. Description: Compound was tested for its Cholesterol Synthesis Inhibition ability in rats. In kind it is functional, organism-based.
Test [4] addresses T1, 3-hydroxy-3-methylglutaryl-coenzyme A reductase (Rattus norvegicus, UniProt P51639).
T1 sequence (P51639 whole entry): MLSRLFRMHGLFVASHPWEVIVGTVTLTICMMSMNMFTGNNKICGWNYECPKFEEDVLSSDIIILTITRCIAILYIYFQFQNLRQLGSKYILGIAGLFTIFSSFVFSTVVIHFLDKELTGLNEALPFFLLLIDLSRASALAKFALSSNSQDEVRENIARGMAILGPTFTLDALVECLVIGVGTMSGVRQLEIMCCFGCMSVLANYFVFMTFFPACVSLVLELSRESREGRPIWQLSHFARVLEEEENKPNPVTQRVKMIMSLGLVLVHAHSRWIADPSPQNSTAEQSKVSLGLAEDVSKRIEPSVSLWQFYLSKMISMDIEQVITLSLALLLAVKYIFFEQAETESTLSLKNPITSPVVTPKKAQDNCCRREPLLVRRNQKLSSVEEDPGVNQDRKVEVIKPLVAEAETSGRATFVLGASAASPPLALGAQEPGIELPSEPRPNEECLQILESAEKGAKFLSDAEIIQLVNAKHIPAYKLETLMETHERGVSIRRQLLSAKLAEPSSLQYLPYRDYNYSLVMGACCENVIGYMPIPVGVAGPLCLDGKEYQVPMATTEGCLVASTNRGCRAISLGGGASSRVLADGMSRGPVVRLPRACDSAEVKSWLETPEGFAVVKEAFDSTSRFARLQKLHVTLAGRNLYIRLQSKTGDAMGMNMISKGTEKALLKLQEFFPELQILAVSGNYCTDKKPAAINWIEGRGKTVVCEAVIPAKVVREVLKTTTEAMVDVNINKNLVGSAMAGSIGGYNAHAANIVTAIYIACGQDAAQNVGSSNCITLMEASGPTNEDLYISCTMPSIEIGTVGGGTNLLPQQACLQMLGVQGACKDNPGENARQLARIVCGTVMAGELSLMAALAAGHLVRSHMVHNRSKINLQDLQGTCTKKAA
Description: Compound was evaluated for the inhibition of HMG-CoA reductase (COR) in rats.

Test [5] is described as follows: as §1. In kind it is functional.

Take `Cc1cnc2ccccc2c1/C=C/[C@@H]1C[C@@H](O)CC(=O)O1`: the Inhibition (usually the change of the read-out against control, counted positive when it falls) in test [1] worked out at 42%. This compound also showed a Relative inhibition in test [2] of less than 1. The IC50 – broadly, the point on the concentration scale where inhibition reaches its midpoint – in test [3] is greater than 1000 nM.

Regarding `COc1ccc2nc(C(C)C)c(/C=C/[C@@H]3C[C@@H](O)CC(=O)O3)c(-c3ccc(F)cc3)c2c1`, the Inhibition in test [1] came out at 60%. In addition, the Relative inhibition in test [2] worked out at 100. For the same compound, the IC50 in test [3] worked out at 13 nM; in test [4] it was 53 nM.

In test [1], `CC(C)c1c(/C=C/[C@@H]2C[C@@H](O)CC(=O)O2)c(-c2ccc(F)cc2)c2cc(F)ccc2[n+]1[O-]` registered an Inhibition of 47%. This compound also came in with a Relative inhibition in test [5] of 112. In addition, the IC50 in test [3] was 18 nM; in test [4] it was 79 nM.

Compound `CN(C)c1nc2ccccc2c(-c2ccc(F)cc2)c1/C=C/[C@@H]1C[C@@H](O)CC(=O)O1` showed an Inhibition in test [1] of 52%. The compound further showed a Relative inhibition in test [2] of 13.2. Further, the IC50 is 47 nM in test [3] and 350 nM in test [4].

Consider `CC(C)c1nc2ccccc2c(-c2ccc(F)cc2)c1CC[C@@H]1C[C@@H](O)CC(=O)O1`, for which the Relative inhibition in test [2] is recorded as less than 1. In test [3], this compound showed an IC50 greater than 1000 nM.

In test [1], `CC(C)c1nc2ccc(Cl)cc2c(-c2ccc(F)cc2)c1/C=C/[C@@H]1C[C@@H](O)CC(=O)O1` registered an Inhibition of 61%. The Relative inhibition in test [2] is given as 100. For the same compound, the IC50 in test [3] amounted to 32 nM; in test [4], 25 nM.

In test [1], `CC(C)c1nc2ccccc2c(-c2ccc(F)cc2)c1/C=C/[C@@H]1C[C@@H](O)CC(=O)O1` showed an Inhibition of 70%. The compound further showed a Relative inhibition in test [2] of 75.8. In addition, the values for the IC50 in test [3] and in test [4] were 42 nM and 32 nM, respectively.

In turn, `Cc1nc2ccc(Cl)cc2c(-c2ccc(F)cc2)c1/C=C/[C@@H]1C[C@@H](O)CC(=O)O1` displayed an Inhibition in test [1] of 18%. For the same compound, the Relative inhibition in test [2] turned out to be 6.3. Moreover, the IC50 worked out at 400 nM in test [3] and 720 nM in test [4].

As to `CC(C)c1nc2ccc(F)cc2c(-c2ccc(F)cc2)c1/C=C/[C@@H]1C[C@@H](O)CC(=O)O1` (stereo in doubt; 8d), the Inhibition in test [1] is recorded as 68%. In test [2], the Relative inhibition is 77.6. The IC50 in test [3] is 50 nM; in test [4], 200 nM.

In test [1], `CC(C)c1nc2ccc(F)cc2c(-c2ccc(F)cc2)c1/C=C/[C@@H]1C[C@@H](O)CC(=O)O1` (stereo in doubt; 17) came in with an Inhibition of 69%.

In turn, `CC[C@H](C)C(=O)O[C@H]1C[C@@H](C)C=C2C=C[C@H](C)[C@H](CC[C@@H]3C[C@@H](O)CC(=O)O3)[C@H]21` [LOVASTATIN] yielded an Inhibition in test [1] of 72%. The same compound yielded a Relative inhibition in test [2] of 118. The IC50 in test [3] came to 25 nM; in test [4], 28 nM.

Compound `CC[C@H](C)C(=O)O[C@H]1CCC=C2C=C[C@H](C)[C@H](CC[C@@H]3C[C@@H](O)CC(=O)O3)[C@H]21` [MEVASTATIN] returned an Inhibition in test [1] of 36%. The midpoint of inhibition in test [3], the IC50, lay at 30 nM.

The values above are taken from ChEMBL document CHEMBL1125871, “Inhibitors of cholesterol biosynthesis. 4. trans-6-[2-(substituted-quinolinyl)ethenyl/ethyl]tetrahydro-4-hydroxy-2 H-pyran-2-ones, a novel series of HMG-CoA reductase inhibitors” (J Med Chem, 1991).
